Source: BigSolDB 2.1

Nc1cc(C(=O)O)ccc1C(=O)O
solubility (mole fraction)
Details | in ethanol | in isopentanol | in isopropanol | in methanol | in n-butanol | in n-propanol | in sec-butanol | in tert-butanol
303.15 K | 0.0349 | 0.00536 | 0.0211 | 0.0685 | 0.00721 | – | 0.00989 | 0.0216
303.25 K | – | – | – | – | – | 0.0137 | – | –
308.15 K | 0.0383 | 0.00583 | 0.0236 | – | 0.00854 | – | 0.0119 | 0.0237
308.75 K | – | – | – | – | – | 0.0165 | – | –
313.15 K | 0.0422 | 0.00643 | – | 0.0794 | 0.0098 | – | 0.0139 | 0.0268
313.75 K | – | – | – | – | – | 0.0193 | – | –
318.15 K | 0.0461 | – | 0.0293 | 0.0853 | 0.0112 | 0.0223 | – | 0.0293
323.15 K | 0.051 | 0.00764 | 0.0326 | 0.0917 | 0.0131 | 0.0256 | 0.0192 | 0.0315
328.15 K | 0.0552 | – | – | 0.0982 | – | 0.0293 | 0.0222 | 0.0351
333.15 K | 0.06 | 0.00895 | – | 0.105 | 0.0168 | 0.0334 | – | 0.0375
338.15 K | 0.0655 | 0.00972 | 0.0441 | 0.112 | 0.0189 | 0.0392 | 0.0297 | 0.0421
